Laboratory results taken from patent US8053441B2, “Pyrazolylquinazolinones as potassium channel openers” (Janssen Pharmaceutica N.V., priority 2006, dated 2011).

Each molecule was assayed against T1, KATP channels (Homo sapiens, UniProt O60706+Q14654) (assay: Potassium Channel Assay (FLIPR membrane potential)). Conditions: TE671 human medulloblastoma cells, 30 μM, Membrane Potential Assay Dye.
T1 construct: TE671 human medulloblastoma cells were obtained from ATCC; host or cells: TE671 human medulloblastoma cells
Assay type: cell-based
Design: key: A compound was designated as active if it produced greater than or equal to 10% response at 30 μM; A compound was designated as inactive if it produced less than 10% response at 30 μM
Procedure: TE671 human medulloblastoma cells were obtained from ATCC and grown in Dulbecco's modified Eagle's medium (DMEM) supplemented with 10% fetal bovine serum, 100 U/ml penicillin and 100 U/ml streptomycine.
The day before testing, the cells were plated in black 96-well plates at 50K/well. On the day of testing, the growth media was removed, then 100 μl of FLIPR buffer (20 mM HEPES, 120 mM NaCl, 2 mM KCl, 2 mM CaCl2, 1 mM MgCl2, 5 mM Glucose) and 100 μl of Membrane Potential Assay Dye (Molecular Devices) dissolved in FLIPR buffer were added to each well. The cells were incubated at room temperature for 15 to 30 min.
The effect of test compounds on KATP channels were evaluated on a fluorometric imaging plate reader (FLIPR, Molecular Devices) at room temperature. After a baseline period, 50 μl of 5× stock solution of test compound prepared in FLIPR buffer was added and fluorescent change was monitored for 3 minutes. After this reading, glyburide, a KATP channel blocker, was added to a final concentration of 5 μM to check the specificity of the test compound as a KATP channel openers. Hyperpolarization resulting from KATP channel opening was observed as a decrease in fluorescent intensity.
Representative compounds of the present invention were tested according to the procedure described above, with results as listed in Table 2 below. Test compound activity was determined as the percent. A compound was designated as active if it produced greater than or equal to 10% response at 30 μM.

T1 sequence (O60706 1-1549 isoform O60706-2): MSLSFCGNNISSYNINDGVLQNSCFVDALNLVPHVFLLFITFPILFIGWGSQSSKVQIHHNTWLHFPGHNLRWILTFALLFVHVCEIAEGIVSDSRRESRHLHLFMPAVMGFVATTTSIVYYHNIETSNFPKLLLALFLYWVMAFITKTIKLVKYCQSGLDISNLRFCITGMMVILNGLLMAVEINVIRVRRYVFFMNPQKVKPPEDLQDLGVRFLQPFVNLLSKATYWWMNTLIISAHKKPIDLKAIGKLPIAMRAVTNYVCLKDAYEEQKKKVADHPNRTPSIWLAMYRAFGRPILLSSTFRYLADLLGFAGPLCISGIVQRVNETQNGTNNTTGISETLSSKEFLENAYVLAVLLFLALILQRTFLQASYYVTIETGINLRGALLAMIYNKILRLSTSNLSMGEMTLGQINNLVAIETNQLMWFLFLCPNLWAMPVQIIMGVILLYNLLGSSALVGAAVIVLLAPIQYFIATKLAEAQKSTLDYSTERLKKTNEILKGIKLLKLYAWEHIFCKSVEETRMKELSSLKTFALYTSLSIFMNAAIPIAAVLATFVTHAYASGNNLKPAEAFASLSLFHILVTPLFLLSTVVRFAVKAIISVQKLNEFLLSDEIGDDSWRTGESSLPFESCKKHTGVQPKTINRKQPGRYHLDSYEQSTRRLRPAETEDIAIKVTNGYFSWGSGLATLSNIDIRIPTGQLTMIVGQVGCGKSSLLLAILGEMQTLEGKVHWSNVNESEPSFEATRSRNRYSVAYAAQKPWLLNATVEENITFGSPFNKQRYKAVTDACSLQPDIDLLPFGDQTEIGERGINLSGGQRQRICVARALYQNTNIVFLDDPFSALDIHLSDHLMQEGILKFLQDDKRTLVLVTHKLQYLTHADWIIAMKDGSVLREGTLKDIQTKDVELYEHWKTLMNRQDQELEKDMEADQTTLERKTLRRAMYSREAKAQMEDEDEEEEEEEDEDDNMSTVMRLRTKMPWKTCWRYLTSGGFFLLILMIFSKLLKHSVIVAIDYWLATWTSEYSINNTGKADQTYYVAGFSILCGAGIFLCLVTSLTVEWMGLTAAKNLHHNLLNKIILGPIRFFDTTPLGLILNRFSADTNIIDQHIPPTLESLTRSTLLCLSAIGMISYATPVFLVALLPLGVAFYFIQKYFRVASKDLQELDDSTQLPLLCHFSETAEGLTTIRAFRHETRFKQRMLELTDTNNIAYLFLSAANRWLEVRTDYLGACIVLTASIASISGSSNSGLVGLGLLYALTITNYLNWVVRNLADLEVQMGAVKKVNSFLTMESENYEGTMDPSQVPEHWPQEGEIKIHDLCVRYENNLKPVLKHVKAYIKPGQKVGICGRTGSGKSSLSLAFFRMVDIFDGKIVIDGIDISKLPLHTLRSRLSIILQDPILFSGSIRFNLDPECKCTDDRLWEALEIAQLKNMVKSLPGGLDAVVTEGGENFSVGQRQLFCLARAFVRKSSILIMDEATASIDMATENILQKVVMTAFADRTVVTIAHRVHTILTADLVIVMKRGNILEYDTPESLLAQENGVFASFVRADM
T1 sequence (Q14654 whole entry): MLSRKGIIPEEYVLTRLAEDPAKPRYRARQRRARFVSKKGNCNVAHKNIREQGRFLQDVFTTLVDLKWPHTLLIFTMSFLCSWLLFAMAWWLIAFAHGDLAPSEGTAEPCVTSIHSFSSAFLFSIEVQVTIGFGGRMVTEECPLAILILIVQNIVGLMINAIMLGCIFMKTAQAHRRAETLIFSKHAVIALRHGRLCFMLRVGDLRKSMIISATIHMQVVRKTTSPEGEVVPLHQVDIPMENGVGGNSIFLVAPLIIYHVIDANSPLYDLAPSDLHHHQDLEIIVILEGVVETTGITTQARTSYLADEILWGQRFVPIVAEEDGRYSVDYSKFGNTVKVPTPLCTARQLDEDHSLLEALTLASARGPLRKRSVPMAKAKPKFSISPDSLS

| response | SMILES |
| --- | --- |
| active | CC1(c2nc3ccc(Cl)cc3c(=O)[nH]2)CC=NN1 (stereo not shown) [compound 1, 6-Chloro-2-(3-methyl-3,4-dihydro-2H-pyrazol-3-vi)-3H-quinazolin-4-one] |
| active | CC1(c2nc3ccc(Br)cc3c(=O)[nH]2)CC=NN1 (stereo not shown) [compound 2, 6-Bromo-2-(3-methyl-3,4-dihydro-2H-pyrazol-3-vi)-3H-quinazolin-4-one] |
| active | CC1(c2nc3cc(C(F)(F)F)ccc3c(=O)[nH]2)CC=NN1 (stereo not shown) [compound 3, 2-(3-Methyl-3,4-dihydro-2H-pyrazol-3-yl)-7-trifluoromethyl-3H-quinazolin-4-one] |
| active | CCOC(=O)C1=NNC(C)(c2nc3ccc(Cl)cc3c(=O)[nH]2)C1 (stereo not shown) [compound 4, 5-(6-Chloro-4-oxo-3,4-dihydro-quinazolin-2-yl)-5-methyl-4,5-dihydro-1H-pyrazole-3-carboxylic acid ethyl ester] |
